Results on 1 molecule are retold here after US20060292158A1, “Method for the treatment of cancer using a novel pharmaceutical composition containing at least one dolastatin 10 derivative” (priority 2004, published 2006).

The subject of assay [1] is KPL-4 human breast carcinoma xenograft. Briefly: Antitumor activity in KPL-4 orthotopic xenograft in athymic nude mice, combination with trastuzumab (Example 1). The class given is in vivo. As to conditions: monotherapy 3, 4 or 6 mg/kg; one week after final injection; control 2.5% DMSO-saline plus 20 mg/kg human IgG. The protocol: (§1) The KPL-4 human breast carcinoma cell line was kindly donated by Prof. Kurebayashi, Kawasaki Medical Center. The cells were cultured in Dulbecco's MEM (Sigma Chemical Co.) supplemented with 5% (v/v) fetal bovine serum (Roche Diagnostics).
One hundred forty (140) 5-week-old female athymic nude mice (BALB/c nu/nu) were purchased from Charles River Japan, Inc. (Yokohama, Japan). The mice were housed in an air-conditioned room (temperature 22±2° C., relative humidity 55±10%) under 12 h light/dark cycles. The mice were given sterilized CE-2 and tap water with 25μg/mL gentamycin ad libitum. […]
The in vivo evaluation procedure for anticancer drugs was based on the methods described by Plowman, et al. (1997) for xenograft models. […] The tumor volume and body weight of each mouse were measured twice a week. […] One week after the final injection, tumor growth inhibition (TGI) was calculated using the formula (1-T/C)×100 (%), where T (treated group) and C (control group) represent the mean tumor volume change. ED50 values were calculated from values of tumor growth inhibition on day 21 using the XL fit program. […]
Packaged software (SAS preclinical package version 5.0,SAS Institute Japan, Ltd.) was used for the statistical analysis. […] ED50s were calculated from values of tumor growth inhibition percentage using XL fit program #509 (MS Excel Add […], ID Business Solutions Ltd.)

Assay [2] shares this test system. The assay is described as follows: Antitumor activity in KPL-4 orthotopic xenograft in athymic nude mice, combination with pertuzumab (Example 2). As to conditions: monotherapy 3, 4 or 6 mg/kg; day 21. Format: in vivo. The protocol: as §1
One hundred (100) 5-week-old female athymic nude mice (BALB/c nu/nu) were purchased from Charles River Japan, Inc. (Yokohama, Japan). The mice were housed in an air-conditioned room (temperature 22±2° C., relative humidity 55±10%) under 12 h light/dark cycles. The mice were given sterilized CE-2 and tap water with 25μg/mL gentamycin ad libitum. […]
The In vivo evaluation procedure for anticancer drugs was based on methods described by Plowman, et al. (1997) for xenograft models. […] The tumor volume and body weight of each mouse were measured twice a week. […] One week after the final injection, tumor growth inhibition (TGI) was calculated using the formula (1-T/C)×100 (%), where T (treated group) and C (control group) represent the mean tumor volume change. ED50 values were calculated from values of tumor growth inhibition on day 21 using the XL fit program. […]
Packaged software (SAS preclinical package version 5.0, SAS Institute Japan, Ltd.) was used for the statistical analysis. […] ED50s were calculated from values of tumor growth inhibition percentage using XL fit program #509 (MS Excel Add-In: XLfit3 Version 3.0.5 Build 12, ID Business Solutions Ltd.)

Consider `CC[C@H](C)[C@@H]([C@@H](CC(=O)N1CCC[C@H]1[C@H](SC)[C@@H](C)C(=O)N(C)CCc1cccc(O)c1)OC)N(C)C(=O)[C@@H](NC(=O)[C@H](C(C)C)N(C)C)C(C)C` [compound of formula (I-A), N-[1-({1-sec-Butyl-4-[2-(2-{[2-(3-hydroxy-phenyl)-ethyl]-methyl-carbamoyl}-1-methylsulfanyl-propyl)-pyrrolidin-1-yl]-2-methoxy-4-oxo-butyl}-methyl-carbamoyl)-2-methyl-propyl]-2-dimethylamino-3-methyl-butyramide], for which the “volume of tumor in comparison with control” value in assay [1] was “decreased significantly”; in assay [2], “decreased strongly”.
